Test results as given in patent EP0433683A2, “Use of benzothiazepines as potentiators of anti-cancer drugs” (MARION MERRELL DOW INC., priority 1989, dated 1991).
Where a name gives a salt, the structure may show the parent alone.

Tests used:
[1] = Anti-depressant activity (AdA), visual observation; format: in vivo; conditions: scale from 0 to 5
Experimental: Anti-depressant activity (AdA) was determined by visual observation.

[2] = Anticonvulsant activity (AcA), method of Zobrist et al.; format: in vivo; design: key: 0 being no observed activity; 5 being the most active; conditions: scale from 0 to 5
Experimental: Anticonvulsant activity (AcA) was determined generally by the method of Zobrist et al., European Patent Application EP.... (our ref.: A 634 EP) entitled, "BENZOTHZAZEPINE ANTI-SEIZURE METHOD," and filed on even date herewith; see also US-A-4,879,289.

[3] = Cardiovascular activity (CvA), isolated tissue; conditions: scale from 0 to 5
Experimental: Cardovascular activity (CvA) was determined by the use of isolated tissue.

[4] = test system: VCR-resistant cell line; conditions: nontoxic concentration of diltiazem hydrochloride; cited from earlier work

Structure (SMILES) | AdA [1] | AcA [2] | CvA [3] | increase in vincristine (VCR) cytotoxicity [4]
COc1ccc([C@@H]2Sc3ccccc3N(CCN(C)C)C(=O)[C@@H]2OC(C)=O)cc1 [Diltiazem, d-cis-5-[2-(dimethylamino)ethyl]-2,3-dihydro-3-hydroxy-2-(4-methoxyphenyl)-1,5-benzothiazepin-4(5H)-one acetate (ester), reference compound] | 2 | 5 |  | 
CCCCC(=O)O[C@H]1C(=O)N(CCN(C)C)c2ccccc2S[C@H]1c1ccc(OC)cc1.O=C(O)/C=C/C(=O)O [d-cis-ML1013] |  | 0 | 1 | 
COc1ccc([C@@H]2Sc3ccccc3N(CCN(C)C)C(=O)[C@@H]2OC(=O)CC(C)C)cc1.O=C(O)/C=C/C(=O)O [d-cis-ML1014] |  | 1 | 1 | 
COc1ccc([C@@H]2Sc3ccccc3N(CCN(C(C)C)C(C)C)C(=O)[C@@H]2OC(C)=O)cc1.Cl [d-cis-ML1016] | 1 | 5 | 2 | 
COc1ccc([C@@H]2Sc3ccccc3N(CCN(C)C)C(=O)[C@@H]2OC(C)=O)cc1 [diltiazem hydrochloride, Diltiazem hydrochloride] |  |  |  | 54 fold
COc1ccc([C@H]2Sc3ccccc3N(CCN(C)C)C(=O)[C@H]2OC(C)=O)cc1 [l-cis-DTZ] |  | 3 |  | 
